Measured values: patent US9682969B2, “Phthalazinone compounds and methods for the treatment of cystic fibrosis” (FLATLEY DISCOVERY LAB, LLC, priority 2013, dated 2017)

The compounds below were run against human F508del CFTR (Homo sapiens (Human), UniProt P13569, DEL508-508) (assay: CFTR-YFP High Throughput Assay (YFP flux assay, FRT cells)). Settings: FRT cells expressing human F508del CFTR and YFP.
human F508del CFTR, sequence (P13569 other isoform, or with tags, fused parts or gaps del F508-F508): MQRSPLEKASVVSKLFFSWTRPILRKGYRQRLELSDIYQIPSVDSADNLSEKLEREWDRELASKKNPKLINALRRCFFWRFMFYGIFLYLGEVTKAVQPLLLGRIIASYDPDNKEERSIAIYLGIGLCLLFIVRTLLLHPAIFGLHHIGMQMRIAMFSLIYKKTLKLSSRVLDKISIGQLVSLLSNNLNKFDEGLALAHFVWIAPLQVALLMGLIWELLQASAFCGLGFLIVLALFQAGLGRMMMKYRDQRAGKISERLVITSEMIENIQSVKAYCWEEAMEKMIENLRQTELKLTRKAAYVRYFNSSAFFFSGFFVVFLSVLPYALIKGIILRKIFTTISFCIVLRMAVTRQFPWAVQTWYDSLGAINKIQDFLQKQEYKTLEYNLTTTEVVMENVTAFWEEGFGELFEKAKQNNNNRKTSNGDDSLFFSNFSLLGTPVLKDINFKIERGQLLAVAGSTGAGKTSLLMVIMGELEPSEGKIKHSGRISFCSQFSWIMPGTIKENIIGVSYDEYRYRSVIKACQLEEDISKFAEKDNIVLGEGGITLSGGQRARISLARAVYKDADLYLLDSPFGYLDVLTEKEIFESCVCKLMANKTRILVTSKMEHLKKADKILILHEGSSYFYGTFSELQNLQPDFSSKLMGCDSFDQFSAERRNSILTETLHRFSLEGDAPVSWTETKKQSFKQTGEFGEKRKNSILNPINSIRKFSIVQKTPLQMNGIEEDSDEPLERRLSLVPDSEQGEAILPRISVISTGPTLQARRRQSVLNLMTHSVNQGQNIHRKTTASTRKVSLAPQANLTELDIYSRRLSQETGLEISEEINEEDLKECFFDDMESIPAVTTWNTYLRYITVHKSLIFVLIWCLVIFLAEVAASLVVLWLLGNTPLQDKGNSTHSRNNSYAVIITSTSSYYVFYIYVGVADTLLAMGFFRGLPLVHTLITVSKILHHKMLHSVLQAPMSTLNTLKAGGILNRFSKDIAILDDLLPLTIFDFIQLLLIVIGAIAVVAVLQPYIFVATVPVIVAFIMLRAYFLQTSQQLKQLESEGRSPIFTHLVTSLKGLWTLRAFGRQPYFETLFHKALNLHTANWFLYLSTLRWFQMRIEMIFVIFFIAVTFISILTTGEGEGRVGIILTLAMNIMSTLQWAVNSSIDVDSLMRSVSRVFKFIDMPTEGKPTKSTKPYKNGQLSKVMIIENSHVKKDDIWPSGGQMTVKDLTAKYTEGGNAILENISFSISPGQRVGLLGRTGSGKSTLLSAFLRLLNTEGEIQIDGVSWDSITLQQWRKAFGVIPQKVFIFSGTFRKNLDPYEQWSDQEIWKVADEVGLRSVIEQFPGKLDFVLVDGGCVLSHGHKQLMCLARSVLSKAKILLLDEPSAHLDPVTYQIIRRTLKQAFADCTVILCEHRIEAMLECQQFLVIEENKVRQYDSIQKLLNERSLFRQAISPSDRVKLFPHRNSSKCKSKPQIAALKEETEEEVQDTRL
Assay type: cell-based
Method: This protocol is designed to selectively screen small molecule compounds for F508del CFTR corrector activities in the YFP (yellow fluorescent protein) flux assay. In this protocol, the cells are incubated with testing compounds for 24 hours, washed with PBS, stimulated with forskolin and a standard potentiator, and fluorescence in each plate well is measured kinetically read on a 384-well plate reader, such as the Hamamatsu FDSS-6000.
YFP fluorescence intensity values are acquired at high speed before and after iodide buffer is injected to the assay cells. Iodide enters the cells via active CFTR channels in the plasma membrane, and quenches the YFP fluorescence. The rate of fluorescence quenching is proportionate to the total CFTR activity in the cell membrane. F508del CFTR correctors increase the number of CFTR molecules in the testing cell plasma membrane, and thereby accelerate YFP quenching.
This method was initially developed for bench top plate readers (Galietta, J, Jayaraman, S and Verkman, A S. Cell-based assay for high-throughput quantitative screening of CFTR chloride transport agonists. Am. J. Physiol. Cell Physiol. (2001), 281: C173), and was adapted to the HTS format (Sui J, Cotard S, Andersen J, Zhu P, Staunton J, Lee M, Lin S. Optimization of a Yellow fluorescent protein-based iodide influx high-throughput screening assay for cystic fibrosis transmembrane conductance regulator (CFTR) modulators. Assay Drug Dev Technol. (2010), 8: 656-668).
Fisher Rat Thyroid (FRT) cells stably expressing both human F508del CFTR and a halide-sensitive yellow fluorescent protein (YFP-H148Q/I152L 25,22) (Galietta et al. Am. J. Physiol Cell Physiol 281(5), C1734, 2001) were cultured on plastic surface in Coon's modified Ham's F12 medium supplemented with FBS 10%, L-glutamine 2 mM, penicillin 100 U/ml, and streptomycin […]. G418 (0.75-1.0 mg/ml) and zeocin (3.2 ug/ml) were used for selection of FRT cells expressing F508del CFTR and YFP. For primary screening, FRT cells were plated into 384-well black wall, transparent bottom microtiter plates (Costar; Corning Inc.) at a cell density of 20,000-40,000 per well. Test compound was applied to the cells at varying concentrations ranging from 2 nM-40 μM in either a 2-fold or 3-fold dilution series. Cells were incubated in a cell culture incubator at 37° C. with 5% CO2 for 24-26 h. Assay plates were washed with DPBS media (Thermo, cat# SH30028.02) to remove unbound cells and compound. Stimulation media (25 μL) containing 20 μM Forskolin & 30 μM P3 [6-(Ethyl-phenyl-sulfonyl)-4-oxo-1,4-dihydro-quinoline-3-carboxylic acid 2-methoxy-benzylamide] in Hams F-12 coon's modified media was added to the plate wells and incubated at room temperature for 60-120 min. 25 μL of HEPES-PBS-I buffer (10 mM HEPES, 1 mM MgCl2, 3 mM KCl, 1 mM CaCl2, 150 mM NaI) was then added and fluorescence quench curves (Excitation 500 nm/Emission 540 nm; exposure 136 ms) were immediately recorded on an FDSS-6000 plate reader (Hamamatsu). Quench rates were derived from least squares fitting of the data as described by Sui et al (2010).
This protocol is designed to selectively screen small molecule compounds for F508del CFTR potentiator activities in the YFP (yellow fluorescent protein) flux assay. Such compounds act acutely to stimulate CFTR already expressed on the membrane surface. In this protocol, the cells are incubated at 27° C. for 24 hours to homogeneously boost F508del CFTR expression in the cell membrane (low temperature correction), washed with PBS, treated with test compound, and CFTR activity is stimulated with forskolin for 1-2 hr. Measurement of ion flux is initiated by addition of iodide-containing buffer, and YFP quenching is kinetically recorded using a 384-well plate reader, such as the Hamamatsu FDSS-6000.
YFP fluorescence intensity values are acquired at high speed over a 1 min time course before and after iodide buffer is injected to the assay cells. […]
`[2H]C([2H])(C)N(C(=O)Cn1nc(-c2cccc(Cl)c2)c2ccc(OC)cc2c1=O)c1ccc2nc(C)oc2c1` [Example 7, 2-(4-(3-chlorophenyl)-7-methoxy-1-oxophthalazin-2(1H)-yl)-N-(ethyl-1,1-d2)-N-(2-methylbenzo[d]oxazol-6-yl)acetamide] was tested, and the EC50 was under 10 µM. `COc1ccc2c(-c3cccc(F)c3)nn(CC(=O)N(c3ccc4nc(C)oc4c3)C3CC3)c(=O)c2c1` [Example 12, N-cyclopropyl-2-(4-(3-fluorophenyl)-7-methoxy-1-oxophthalazin-2(1H)-yl)-N-(2-methylbenzo[d]oxazol-6-yl)acetamide] was tested, and the EC50 was under 10 µM. For `Cc1nc2ccc(N(C)C(=O)Cn3nc(-c4cccc(F)c4)c4ccc(OC5CCCCC5)cc4c3=O)cc2o1` [Example 28, 2-(7-(cyclohexyloxy)-4-(3-fluorophenyl)-1-oxophthalazin-2(1H)-yl)-N-methyl-N-(2-methylbenzo[d]oxazol-6-yl)acetamide], the EC50 was under 10 µM. For `CCN(C(=O)Cn1nc(-c2cccc(Cl)c2)c2ccc(OC)cc2c1=O)c1ccc2nc(C)oc2c1` [Example 9, 2-(4-(3-chlorophenyl)-7-methoxy-1-oxophthalazin-2(1H)-yl)-N-ethyl-N-(2-methylbenzo[d]oxazol-6-yl)acetamide], the EC50 was under 10 µM. `Cc1nc2ccc(N(C(=O)Cn3nc(-c4cccc(F)c4)c4ccc(O)cc4c3=O)C3CC3)cc2o1` [Example 14, N-cyclopropyl-2-(4-(3-fluorophenyl)-7-hydroxy-1-oxophthalazin-2(1H)-yl)-N-(2-methylbenzo[d]oxazol-6-yl)acetamide] was tested, and the EC50 was under 10 µM. Work on `CCOc1ccc2c(-c3cccc(F)c3)nn(CC(=O)N(c3ccc4nc(C)oc4c3)C3CC3)c(=O)c2c1` [Example 21, N-cyclopropyl-2-(7-ethoxy-4-(3-fluorophenyl)-1-oxophthalazin-2(1H)-yl)-N-(2-methylbenzo[d]oxazol-6-yl)acetamide] yielded an EC50 of under 10 µM. `Cc1nc2ccc(N(C)C(=O)Cn3nc(-c4cccc(Cl)c4)c4ccc(OC5CCOCC5)cc4c3=O)cc2o1` [Example 29, 2-(4-(3-chlorophenyl)-1-oxo-7-((tetrahydro-2H-pyran-4-yl)oxy)phthalazin-2(1H)-yl)-N-methyl-N-(2-methylbenzo[d]oxazol-6-yl)acetamide] was tested, and the EC50 was under 10 µM. With `Cc1nc2ccc(N(C)C(=O)Cn3nc(-c4cccc(Cl)c4)c4ccc(OC(C)C)cc4c3=O)cc2o1` [Example 25, 2-(4-(3-chlorophenyl)-7-isopropoxy-1-oxophthalazin-2(1H)-yl)-N-methyl-N-(2-methylbenzo[d]oxazol-6-yl)acetamide] the EC50 was under 10 µM. Compound `Cc1nc2ccc(N(C)C(=O)Cn3nc(-c4cccc(F)c4)c4ccc(OC5CCOCC5)cc4c3=O)cc2o1` [Example 27, 2-(4-(3-fluorophenyl)-1-oxo-7-((tetrahydro-2H-pyran-4-yl)oxy)phthalazin-2(1H)-yl)-N-methyl-N-(2-methylbenzo[d]oxazol-6-yl)acetamide] has an EC50 of under 10 µM. `Cc1nc2ccc(N(C)C(=O)Cn3nc(-c4cccc(F)c4)c4ccc(O)cc4c3=O)cc2o1` [Example 13, 2-(4-(3-fluorophenyl)-7-hydroxy-1-oxophthalazin-2(1H)-yl)-N-methyl-N-(2-methylbenzo[d]oxazol-6-yl)acetamide] gave an EC50 of under 10 µM. `CCOc1cc2c(=O)n(CC(=O)N(C)c3ccc4nc(C)oc4c3)nc(-c3cccc(Cl)c3)c2cc1Cl` [Example 31, 2-(6-chloro-4-(3-chlorophenyl)-7-ethoxy-1-oxophthalazin-2(1H)-yl)-N-methyl-N-(2-methylbenzo[d]oxazol-6-yl)acetamide] gave an EC50 of under 10 µM. Work on `COc1cc2c(=O)n(CC(=O)N(C)c3ccc4nc(C)oc4c3)nc(-c3cccc(Cl)c3)c2cc1Cl` [Example 11, 2-(6-chloro-4-(3-chlorophenyl)-7-methoxy-1-oxophthalazin-2(1H)-yl)-N-methyl-N-(2-methylbenzo[d]oxazol-6-yl)acetamide] yielded an EC50 of under 10 µM. For `Cc1nc2ccc(N(C)C(=O)Cn3nc(-c4cccc(Cl)c4)c4ccc(OCC5CC5)cc4c3=O)cc2o1` [Example 24, 2-(4-(3-chlorophenyl)-7-(cyclopropylmethoxy)-1-oxophthalazin-2(1H)-yl)-N-methyl-N-(2-methylbenzo[d]oxazol-6-yl)acetamide], the EC50 was under 10 µM. In the case of `CCOc1ccc2c(-c3cccc(Cl)c3)nn(CC(=O)N(c3ccc4nc(C)oc4c3)C3CC3)c(=O)c2c1` [Example 18, 2-(4-(3-chlorophenyl)-7-ethoxy-1-oxophthalazin-2(1H)-yl)-N-cyclopropyl-N-(2-methylbenzo[d]oxazol-6-yl)acetamide], the EC50 is reported as under 10 µM. `[2H]C([2H])([2H])N(C(=O)Cn1nc(-c2cccc(F)c2)c2ccc(OCC)cc2c1=O)c1ccc2nc(C)oc2c1` [Example 22, 2-(7-ethoxy-4-(3-fluorophenyl)-1-oxophthalazin-2(1H)-yl)-N-(methyl-d3)-N-(2-methylbenzo[d]oxazol-6-yl)acetamide] showed an EC50 of under 10 µM. `CCOc1ccc2c(-c3cccc(Cl)c3)nn(CC(=O)N(C)c3ccc4nc(C)oc4c3)c(=O)c2c1` [Example 19, 2-(4-(3-chlorophenyl)-7-ethoxy-1-oxophthalazin-2(1H)-yl)-N-methyl-N-(2-methylbenzo[d]oxazol-6-yl)acetamide] showed an EC50 of under 10 µM. In the case of `Cc1nc2ccc(N(C)C(=O)Cn3nc(-c4cccc(Cl)c4)c4ccc(OC5CCCCC5)cc4c3=O)cc2o1` [Example 26, 2-(4-(3-chlorophenyl)-7-(cyclohexyloxy)-1-oxophthalazin-2(1H)-yl)-N-methyl-N-(2-methylbenzo[d]oxazol-6-yl)acetamide], the EC50 is reported as under 10 µM. For `[2H]C([2H])([2H])N(C(=O)Cn1nc(-c2cccc(Cl)c2)c2ccc(OCC3CC3)cc2c1=O)c1ccc2nc(C)oc2c1` [Example 23, 2-(4-(3-chlorophenyl)-7-(cyclopropylmethoxy)-1-oxophthalazin-2(1H)-yl)-N-(methyl-d3)-N-(2-methylbenzo[d]oxazol-6-yl)acetamide], the EC50 was under 10 µM. Compound `COc1cc2c(=O)n(CC(=O)N(C)c3ccc4nc(C)oc4c3)nc(-c3cccc(F)c3)c2cc1Cl` [Example 10, 2-(6-chloro-4-(3-fluorophenyl)-7-methoxy-1-oxophthalazin-2(1H)-yl)-N-methyl-N-(2-methylbenzo[d]oxazol-6-yl)acetamide] has an EC50 of under 10 µM. `Cc1nc2ccc(N(C)C(=O)Cn3nc(-c4cccc(F)c4)c4ccccc4c3=O)cc2o1` [Example 2, 2-(4-(3-fluorophenyl)-1-oxophthalazin-2(1H)-yl)-N-methyl-N-(2-methylbenzo[d]oxazol-6-yl)acetamide] was tested, and the EC50 was under 10 µM. `CCN(C(=O)Cn1nc(-c2cccc(F)c2)c2ccc(OC)cc2c1=O)c1ccc2nc(C)oc2c1` [Example 8, N-ethyl-2-(4-(3-fluorophenyl)-7-methoxy-1-oxophthalazin-2(1H)-yl)-N-(2-methylbenzo[d]oxazol-6-yl)acetamide] gave an EC50 of under 10 µM. `COc1ccc2c(-c3cccc(Cl)c3)nn(CC(=O)N(c3ccc4nc(C)oc4c3)C3CC3)c(=O)c2c1` [Example 5, 2-(4-(3-chlorophenyl)-7-methoxy-1-oxophthalazin-2(1H)-yl)-N-cyclopropyl-N-(2-methylbenzo[d]oxazol-6-yl)acetamide] gave an EC50 of under 10 µM. For `COc1ccc2c(-c3cccc(F)c3)nn(CC(=O)N(C)c3ccc4nc(C)oc4c3)c(=O)c2c1` [Example 3, 2-(4-(3-fluorophenyl)-7-methoxy-1-oxophthalazin-2(1H)-yl)-N-methyl-N-(2-methylbenzo[d]oxazol-6-yl)acetamide], the EC50 was under 10 µM. With `CCOc1ccc2c(-c3cccc(F)c3)nn(CC(=O)N(C)c3ccc4nc(C)oc4c3)c(=O)c2c1` [Example 17, 2-(7-ethoxy-4-(3-fluorophenyl)-1-oxophthalazin-2(1H)-yl)-N-methyl-N-(2-methylbenzo[d]oxazol-6-yl)acetamide] the EC50 was under 10 µM.
